Assay results as given in US20210246115A1 (Bioimics AB, priority 2017, published 2021).
Values after ≈ are worked out from the molar mass of the structure shown. Where a name gives a salt, the structure may show the parent alone. Read-outs that look alike come from different tables or passages of the source.

Key:
E. faecium ATCC 700221 = assay: MIC, E. faecium ATCC 700221; assay type: cell-based; conditions: Enterococcus faecium, ATCC700221; Table XIV A. Gram-positive bacteria; read-out: E. faecium ATCC 700221 MIC
[1] = test system: Escherichia coli (ATCC25922); assay: MIC, broth microdilution (CLSI), Escherichia coli; conditions: Escherichia coli
M. phlei ATCC 11758 = assay: MIC, M. phlei ATCC 11758; assay type: cell-based; conditions: Mycolicibacterium phlei, ATCC11758; Table XIV A. Gram-positive bacteria
[2] = test system: Staphylococcus aureus subsp. aureus (ATCC29213); assay: MIC, broth microdilution (CLSI), Staphylococcus aureus ATCC29213; assay type: cell-based; conditions: Staphylococcus aureus, read-out: S. aureus ATCC 29213 MIC
S. pneumoniae ATCC 49619 = assay: MIC, S. pneumoniae ATCC 49619; assay type: cell-based; conditions: Streptococcus pneumoniae, ATCC49619; Table XIV A. Gram-positive bacteria
[3] = test system: Pseudomonas aeruginosa (ATCC27853); assay: MIC, broth microdilution (CLSI), Pseudomonas aeruginosa; assay type: cell-based; conditions: ATCC27853, Table XIV B. Gram-negative bacteria, read-out: P. aeruginosa ATCC 27853 MIC
H. influenzae ATCC 49247 = assay: MIC, H. influenzae ATCC 49247; assay type: cell-based; conditions: Haemophilus influenzae, ATCC49247; Table XIV B. Gram-negative bacteria
[4] = test system: Enterococcus faecalis (ATCC29212); assay: MIC, broth microdilution (CLSI), Enterococcus faecalis; assay type: cell-based; conditions: ATCC29212, Table XIV A. Gram-positive bacteria, read-out: E. faecalis ATCC 29212 MIC
[5] = test system: S. aureus USA300 MRSA BAA-1717; assay: MIC, S. aureus USA300 MRSA BAA-1717; assay type: cell-based; conditions: Staphylococcus aureus; Table XIV A. Gram-positive bacteria; read-out: S. aureus USA300 MRSA BAA-1717 MIC
[6] = test system: E. coli JW5503 (efflux defective); assay: MIC, E. coli JW5503 (efflux defective); assay type: cell-based; conditions: Escherichia coli, read-out: E. coli JW5503 (efflux defective) MIC
[7] = test system: P. aeruginosa NTUH974 (MDR); assay: MIC, P. aeruginosa NTUH974 (MDR); assay type: cell-based; conditions: Pseudomonas aeruginosa; Table XIV B. Gram-negative bacteria; read-out: P. aeruginosa NTUH974 (MDR) MIC
M. fortuitum ATCC 110 = assay: MIC, M. fortuitum ATCC 110; assay type: cell-based; conditions: Mycolicibacterium fortuitum, ATCC110; Table XIV A. Gram-positive bacteria
H. pylori ATCC 43504 = assay: MIC, H. pylori ATCC 43504; assay type: cell-based; conditions: Helicobacter pylori, ATCC43504; Table XIV B. Gram-negative bacteria
[8] = test system: N. gonorrhoeae ATCC 700825; assay: MIC, N. gonorrhoeae ATCC 700825; assay type: cell-based; conditions: Neisseria gonorrhoeae, ATCC700825; Table XIV B. Gram-negative bacteria
[9] = test system: S. aureus MRSA ATCC 33591; assay: MIC, S. aureus MRSA ATCC 33591; assay type: cell-based; conditions: Staphylococcus aureus; Table XIV A. Gram-positive bacteria; read-out: S. aureus MRSA ATCC 33591 MIC
[10] = test system: E. coli RNase P RNA, M1 RNA; assay: Inhibition of bacterial RNase P activity, IC50 determination (cleavage of pATSerUG by M1 RNA); assay type: biochemical; conditions: NI: No inhibition
A. baumannii ATCC 17978 = assay: MIC, A. baumannii ATCC 17978; assay type: cell-based; conditions: Acinetobacter baumannii, ATCC17978; Table XIV B. Gram-negative bacteria
K. pneumoniae ATCC 43816 = assay: MIC, K. pneumoniae ATCC 43816; assay type: cell-based; conditions: Klebsiella pneumoniae, ATCC43816; Table XIV B. Gram-negative bacteria
[11] = test system: Staphylococcus aureus (ATCC25923); assay: MIC, broth microdilution (CLSI), Staphylococcus aureus ATCC25923; conditions: Staphylococcus aureus, ATCC25923, read-out: S. aureus ATCC 25923 MIC
[12] = ATCC25922, read-out: E. coli ATCC 25922 MIC, Table XIII
[13] = ATCC25922, read-out: E. coli ATCC 25922 MIC, Table XIV B. Gram-negative bacteria
[14] = ATCC29213, Table XIV A. Gram-positive bacteria

SMILES | MIC (E. faecium ATCC 700221) [µg/mL] | MIC [1, 12] [µg/mL] | MIC [1, 13] [µg/mL] | MIC (M. phlei ATCC 11758) [µg/mL] | MIC ([2]; ATCC29213, Table XIII) [µg/mL] | MIC [2, 14] [µg/mL] | MIC (S. pneumoniae ATCC 49619) [µg/mL] | MIC [3] [µg/mL] | MIC (H. influenzae ATCC 49247) [µg/mL] | MIC [4] [µg/mL] | MIC [5] [µg/mL] | MIC [6] [µg/mL] | MIC [7] [µg/mL] | MIC (M. fortuitum ATCC 110) [µg/mL] | MIC (H. pylori ATCC 43504) [µg/mL] | MIC [8] [µg/mL] | MIC [9] [µg/mL] | IC50 [10] [µM] | MIC (A. baumannii ATCC 17978) [µg/mL] | MIC (K. pneumoniae ATCC 43816) [µg/mL] | also measured
Cc1cccc(-c2ccc3c(c2)c(CCCNCC(O)CN)cn3C2CCCCC2)c1 (stereo not drawn) [Compound 385, 1-amino-3-((3-(1-cyclohexyl-5-(m-tolyl)-1H-indol-3-yl)propyl)amino) propan-2-ol] | 2 (≈ 4.77 µM) | 4 (≈ 9.53 µM) | 4 (≈ 9.53 µM) | 4 (≈ 9.53 µM) | 4 (≈ 9.53 µM) | 2 (≈ 4.77 µM) | 8 (≈ 19.1 µM) | 4 (≈ 9.53 µM) | 2 (≈ 4.77 µM) | 2 (≈ 4.77 µM) | 2 (≈ 4.77 µM) | 2 (≈ 4.77 µM) | 4 (≈ 9.53 µM) | 2 (≈ 4.77 µM) | 8 (≈ 19.1 µM) | 2 (≈ 4.77 µM) | 2 (≈ 4.77 µM) | 13 | 4 (≈ 9.53 µM) | 4 (≈ 9.53 µM) | –
Cc1cccc(C(CCNCCCN)c2cn(C3CCCCC3)c3cc(Br)ccc23)c1.Cl.Cl (stereo not drawn) [Compound 357, N1-(3-(6-bromo-1-cyclohexyl-1H-indol-3-yl)-3-(m-tolyl)propyl)propane-1,3-diamine hydrochloride salt] | 1 | 4 | 2 | 4 | 4 | 2 | 8 | 4 | 2 | 2 | 2 | 4 | 4 | 4 | 16 | 2 | 2 | 10 | 4 | 2 | –
NCCCNCCC(c1cccc(OC(F)(F)F)c1)c1cn(C2CCCCC2)c2ccccc12 (stereo not drawn) [Compound 348, N1-(3-(1-cyclohexyl-1H-indol-3-yl)-3-(3-(trifluoromethoxy)phenyl)propyl)propane-1,3-diaminesalt] | 2 | 4 | 2 | 4 | 4 | 4 | 8 | 8 | 4 | 2 | 4 | 2 | 8 | 4 | 16 | 2 | 4 | 4.5 | 4 | 2 | –
Cc1cccc(-c2ccc3c(c2)c(CCCNCCCN)cn3C2CCCCC2)c1.Cl.Cl [Compound 360, N1-(3-(1-cyclohexyl-5-(m-tolyl)-1H-indol-3-yl)propyl)propane-1,3-diamine hydrochloride salt] | 2 | 4 | 2 | 4 | 4 | 4 | 8 | 8 | 2 | 2 | 2 | 2 | 8 | 4 | 8 | 2 | 2 | 7.8 | 4 | 4 | –
Cc1cccc(C(CCN[C@H]2CC[C@H](N)CC2)c2cn(CC3CCCCC3)c3ccccc23)c1 (stereo partly drawn) [Compound 199, (1R,4R)-N1-(3-(1-(cyclohexylmethyl)-1H-indol-3-yl)-3-(m-tolyl)propyl) cyclohexane-1,4-diamine hydrochloride] | 4 | 4 | 32 | 2 | 4 | 8 | 16 | 32 | 8 | 8 | 4 | 4 | 64 | 2 | – | 4 | 8 | 9.8 | 8 | 16 | MIC [11]: 2 µg/mL
COc1ccccc1-c1ccc2c(c1)c(CCCN[C@H]1CC[C@H](N)CC1)cn2CC1CCCCC1 [Compound 237, (1S,4S)-N1-(3-(1-(cyclohexylmethyl)-5-(2-methoxyphenyl)-1H-indol-3-yl)propyl)cyclohexane-1,4-diamine hydrochloride salt] | 2 | 4 | 4 | 2 | 4 | 2 | 8 | 16 | 8 | 2 | 4 | 4 | 16 | 2 | – | 2 | 4 | 9.8 | 8 | 4 | MIC [11]: 2 µg/mL
Cl.Cl.NCCCNCCC(c1cn(C2CCCCC2)c2ccccc12)C1CCCCC1 (stereo not drawn) [Compound 371, N1-(3-cyclohexyl-3-(1-cyclohexyl-1H-indol-3-yl)propyl)propane-1,3-diamine hydrochloride] | 2 | 2 | 2 | 4 | 4 | 4 | 8 | 8 | 4 | 4 | 4 | 2 | 8 | 4 | 16 | 2 | 4 | – | 4 | 4 | IC50 ([10]; hydrochloride): 9 µM
Cc1cccc(C(CCNC2CCC(N)CC2)c2cn(CC3CCCCCC3)c3ccccc23)c1 [Compound 245, (1S,4S)-N1-(3-(1-(cycloheptylmethyl)-1H-indol-3-yl)-3-(m-tolyl)propyl)cyclohexane-1,4-diamine hydrochloride salt] | 2 | 4 | 4 | 2 | 4 | 4 | 8 | 16 | 8 | 4 | 2 | 4 | 16 | 2 | – | 2 | 4 | 13 | 4 | 8 | MIC [11]: 1 µg/mL
Cc1cccc(-c2ccc3c(c2)c(C2CCCC(NCCCN)C2)cn3C2CCCCC2)c1 (stereo not drawn) [Compound 381, N1-(3-(1-cyclohexyl-5-(m-tolyl)-1H-indol-3-yl)cyclohexyl)propane-1,3-diamine] | 1 (≈ 2.25 µM) | 4 (≈ 9.02 µM) | 2 (≈ 4.51 µM) | 4 (≈ 9.02 µM) | 2 (≈ 4.51 µM) | 2 (≈ 4.51 µM) | 8 (≈ 18 µM) | 4 (≈ 9.02 µM) | 2 (≈ 4.51 µM) | 2 (≈ 4.51 µM) | 2 (≈ 4.51 µM) | 2 (≈ 4.51 µM) | 8 (≈ 18 µM) | 4 (≈ 9.02 µM) | 8 (≈ 18 µM) | 2 (≈ 4.51 µM) | 2 (≈ 4.51 µM) | 11 | 4 (≈ 9.02 µM) | 4 (≈ 9.02 µM) | –
